Results reported in publication PMC10400562, “Label-free measurement of antimicrobial peptide interactions with lipid vesicles and nanodiscs using microscale thermophoresis” (Scientific Reports, 2023).
Where two headings read alike, the source gives them in different places. Non-standard residues stand in square brackets, D forms with d. Residues, ends and D or L forms follow the SMILES beside them.

Experiment: SPR, peptide binding to LUVs immobilized on L1 chip
Details: for Kd: SPR steady state analysis, HEPES pH 7.4, room temperature, mean ± SD of triplicates; for koff PC/PG / koff PC: SPR, 10 mM HEPES pH 7.4 100 mM NaCl, room temperature, 400 s dissociation phase; for koff PC/PG: two-population fit averaged; for koff PC: two-population fit averaged (Figueira et al.); for SPR KP, DMPC: lipid/aqueous partition coefficient from SPR steady state (Figueira et al. method), DMPC LUVs; for SPR KP, DMPC / SPR KP, DMPC/PG: HEPES pH 7.4, ± SD of triplicate fits; for SPR KP, DMPC/PG: lipid/aqueous partition coefficient from SPR steady state, 95% DMPC 5% DMPG LUVs
Protocol: The interactions between AMPs 1–5 and LUVs were first investigated by SPR as a benchmark for the MST measurements. The data was acquired using the same lipid compositions as used in the MST data acquisition. LUVs were immobilized on an L1 chip, and an increasing concentration of AMPs was injected over them. […] The dissociation rate, koff, was calculated from the dissociation step, using the methodology presented by Figueira et al.[21], summarized in Table 2.
DMPC and DMPC:5% DMPG vesicles were prepared by solubilising a known weight of lipid in chloroform with a small amount of methanol to assist in the dissolution of the PG lipid head groups. The chloroform stock was dried in vacuo to produce a lipid film, which was further dried for additional 3 h. The lipid film was solubilised in 10 mM TRIS buffer (pH 7.4) containing 100 mM NaCl to yield a 20 mM milky lipid stock.
To produce the working vesicle stock, 1 mL of vesicle stock was extruded 20 times through a 0.1 µm filter using an Avanti Lipids mini-extruder. Vesicle size was confirmed using a Malvern Zetasizer Nano ZS (Malvern Panalytical Ltd, Malvern, United Kingdom).
The SPR measurements were performed using a T200 Biacore instrument (GE Healthcare, Oslo, Norway) at room temperature. An L1 chip was covered with extruded DMPC liposomes (1 mM in 10 mM HEPES buffer pH 7.4 with 100 mM NaCl) using a flowrate of 2 µL/min for 2400 s. Chip coverage was tested by injection of 0.1 mg/mL of bovine serum albumin for 1 min at 30 µL/min, with a change of < 400 RU indicating sufficient coverage.
The liposome surface was stabilized after each injection by three subsequent injections of 10 mM NaOH at 30 µL/min for 30 s each. Between experiments, the chip surface was cleaned by 20 mM CHAPS, 40 mM octyl-β-D-glucopyranoside and 30% ethanol in turn, with each solution injected for 1 min at 30 µL/min. The control flow cell was treated identically, with the exception that only the HEPES buffer solution was injected. The results were processed using in-house MATLAB scripts (MATLAB R2020a; scripts are available at https://github.com/MarJakubec).
KD was obtained from a steady state analysis using the intensities at the 190 s dissociation time, using Eq. (1):[21]1 Req=cRmax/KD+c+Roff where Req is the response at the steady state equilibrium, c is the peptide concentration, Rmax is the maximum response and Roff the response offset.
KP was obtained from same steady state affinity values using the method presented by Figuera et al., Eq. (2):[21]2 RUS/RUL=γLKPMS/MLSW/1+σγLKPSW where RUS and RUL are the relative responses of solute (peptides) and lipids respectively, γL is the molar volume of the lipids, MS and ML are the molecular mass of solute and lipid, respectively, and [S]W is the concentration of solute in water. KP and σ are obtained from fitting (with σ being lipid to solute ratio).
For koff evaluation we have used the formalism of Figuera et al.[21] for linearization of the dissociation process, where we have identified the contribution from two different populations in the dissociation response. Koff values were then obtained by Eq. (3) and averaged by Eq. (4):3 SL(t)=αe^-koff,α^t+βe^-koff,β^t+SL,r 4 koff=αkoff,α+βkoff,β/α+β where SL is the linearized ratio of solute and lipid, α and β are individual populations, and SL,r is the retained solute fraction.

[1] = 95% DMPC 5% DMPG LUVs on L1 chip, read-out: SPR KD, DMPC/PG
[2] = 95% DMPC 5% DMPG LUVs on L1 chip

SMILES	Kd [1]	Kd (DMPC LUVs on L1 chip)	koff PC/PG [2]	koff PC (DMPC LUVs on L1 chip)	SPR KP, DMPC	SPR KP, DMPC/PG
NCCCC[C@@H]1NC(=O)[C@H](CCCCN)NC(=O)[C@H](Cc2c[nH]c3ccccc23)NC(=O)[C@H](Cc2c[nH]c3ccccc23)NC(=O)[C@H](Cc2c[nH]c3ccccc23)NC(=O)[C@H](CCCCN)NC1=O [compound 3] (cyclo(WWWKKK))	112 ± 15 µM	302 ± 32 µM	0.32 ± 0.05 s⁻¹	0.48 ± 0.07 s⁻¹	2.53 ± 0.08 × 10^3	5.16 ± 0.34 × 10^3
NCCCC[C@@H]1NC(=O)[C@H](Cc2c[nH]c3ccccc23)NC(=O)[C@H](CCCCN)NC(=O)[C@H](Cc2c[nH]c3ccccc23)NC(=O)[C@H](CCCCN)NC(=O)[C@H](Cc2c[nH]c3ccccc23)NC1=O [compound 4] (cyclo(WKWKWK))	474 ± 45 µM	712 ± 27 µM	1.32 ± 0.05 s⁻¹	0.90 ± 0.24 s⁻¹	0.53 ± 0.01 × 10^3	0.63 ± 0.03 × 10^3
CC(C)C[C@@H]1NC(=O)[C@@H](CCCNC(=N)N)NC(=O)[C@H](CCCCN)NC(=O)[C@H](CC(N)=O)NC(=O)[C@@H](Cc2c[nH]c3ccccc23)NC(=O)[C@H](Cc2c[nH]c3ccccc23)NC1=O [compound 5] (cyclo(LW[dW]NK[dR]))	1030 ± 58 µM	2550 ± 493 µM	1.75 ± 0.16 s⁻¹	1.76 ± 0.12 s⁻¹	0.28 ± 0.01 × 10^3	0.40 ± 0.02 × 10^3

The next compounds have a lower Kd [1] than those just listed; values first:

Kd [1]	Kd (DMPC LUVs on L1 chip)	koff PC/PG [2]	koff PC (DMPC LUVs on L1 chip)	SPR KP, DMPC	SPR KP, DMPC/PG	SMILES
70 ± 1 µM	142 ± 35 µM	0.19 ± 0.01 s⁻¹	0.22 ± 0.02 s⁻¹	6.65 ± 0.80 × 10^3	12.71 ± 0.16 × 10^3	N=C(N)NCCC[C@@H]1NC(=O)[C@H](CCCNC(=N)N)NC(=O)[C@H](Cc2c[nH]c3ccccc23)NC(=O)[C@H](Cc2c[nH]c3ccccc23)NC(=O)[C@H](Cc2c[nH]c3ccccc23)NC(=O)[C@H](CCCNC(=N)N)NC1=O [compound 1] (cyclo(WWWRRR))
105 ± 7 µM	318 ± 62 µM	0.48 ± 0.05 s⁻¹	0.87 ± 0.19 s⁻¹	1.30 ± 0.09 × 10^3	3.16 ± 0.15 × 10^3	N=C(N)NCCC[C@@H]1NC(=O)[C@H](Cc2c[nH]c3ccccc23)NC(=O)[C@H](CCCNC(=N)N)NC(=O)[C@H](Cc2c[nH]c3ccccc23)NC(=O)[C@H](CCCNC(=N)N)NC(=O)[C@H](Cc2c[nH]c3ccccc23)NC1=O [compound 2] (cyclo(WRWRWR))
